Active and inactive are the calls of the source. The rule behind the calls is not given here.
What was measured:
[1] = target: Prohibitin-2 (Homo sapiens) (UniProt Q99623); assay: Induction of PHB2-mediated melanogenesis in human HBL cells assessed as pigmentation at 10 uM after 10 days relative to control; assay type: cell-based
[2] = target: Prohibitin-2 (Homo sapiens) (UniProt Q99623); assay: Induction of PHB2-mediated melanogenesis in human HBL cells assessed as pigmentation at 1 uM after 10 days relative to control; assay type: cell-based
[3] = species: Homo sapiens; assay: Induction of apoptosis in human MM162 cells at 1 to 10 uM after 48 hrs by Annexin V-PE/7-AAD staining based flow cytometry; assay type: functional, cell-based
[4] = test system: HBL; assay: Induction of apoptosis in human HBL cells at 1 to 10 uM after 48 hrs by Annexin V-PE/7-AAD staining based flow cytometry; assay type: functional, cell-based
[5] = species: Homo sapiens; assay: Induction of apoptosis in human MM043 cells at 1 to 10 uM after 48 hrs by Annexin V-PE/7-AAD staining based flow cytometry; assay type: functional, cell-based

Sequence of Prohibitin-2 (Homo sapiens) (Q99623 whole entry): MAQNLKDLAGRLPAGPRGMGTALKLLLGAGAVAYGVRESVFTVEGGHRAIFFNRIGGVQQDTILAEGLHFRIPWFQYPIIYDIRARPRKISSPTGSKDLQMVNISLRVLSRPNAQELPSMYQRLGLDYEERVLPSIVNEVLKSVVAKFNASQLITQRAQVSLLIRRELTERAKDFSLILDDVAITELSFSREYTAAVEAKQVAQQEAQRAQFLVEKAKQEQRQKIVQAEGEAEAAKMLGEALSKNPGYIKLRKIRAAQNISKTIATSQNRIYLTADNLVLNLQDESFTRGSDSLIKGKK

| fold change (FC) [1] | fold change (FC) [2] | SMILES | Activity [3] | Activity [4] | Activity [5] |
| --- | --- | --- | --- | --- | --- |
| 1.11 | 0.9 | Fc1cccc(CNc2nc(NCCc3ccccc3)nc(Oc3c(F)c(F)c(F)c(F)c3F)n2)c1 | – | – | – |
| 0.69 | 0.9 | CNc1nc(NCc2ccccc2)nc(Oc2c(F)c(F)c(F)c(F)c2F)n1 | – | – | – |
| 0.71 | 0.94 | C[C@@H](c1ccccc1)N(C)c1nc(NCCN(C)C)nc(Oc2c(F)c(F)c(F)c(F)c2F)n1 | – | – | – |
| 1.97 | 1.15 | CN(C)CCNc1nc(Oc2c(F)c(F)c(F)c(F)c2F)nc(N(C)Cc2cccc(F)c2)n1 | – | – | – |
| 0.74 | 0.95 | CCC(Nc1nc(N[C@H](CC)CO)nc(Oc2c(F)c(F)c(F)c(F)c2F)n1)c1cccc(F)c1 (stereo partly drawn) | – | – | – |
| 1.07 | 1.07 | Fc1cccc(CNc2nc(NCCCc3ccccc3)nc(Oc3c(F)c(F)c(F)c(F)c3F)n2)c1 | – | – | – |
| 0.93 | 0.85 | Fc1cccc(CNc2nc(Oc3c(F)c(F)c(F)c(F)c3F)nc(N3CCOCC3)n2)c1 | – | – | – |
| 1.08 | 0.99 | Fc1cccc(CNc2nc(Oc3c(F)c(F)c(F)c(F)c3F)nc(N3CCCC3)n2)c1 | – | – | – |
| 0.83 | 0.94 | CC[C@H](CO)Nc1nc(N[C@H](C)c2ccccc2)nc(Oc2c(F)c(F)c(F)c(F)c2F)n1 | – | – | – |
| 0.94 | 0.88 | CNc1nc(Oc2c(F)c(F)c(F)c(F)c2F)nc(N(C)[C@H](C)c2ccccc2)n1 | – | – | – |
| 0.95 | 1.07 | Fc1cccc(CNc2nc(NCC3CCCO3)nc(Oc3c(F)c(F)c(F)c(F)c3F)n2)c1 (stereo not drawn) | – | – | – |
| 0.86 | 1.01 | CNc1nc(Oc2c(F)c(F)c(F)c(F)c2F)nc(N(C)[C@@H](C)c2ccccc2)n1 | – | – | – |
| 0.68 | 0.78 | CC[C@H](CO)Nc1nc(NC(C)c2cccc(F)c2)nc(Oc2c(F)c(F)c(F)c(F)c2F)n1 (stereo partly drawn) | – | – | – |
| 0.59 | 0.98 | CN(C)CCNc1nc(NCc2cccc(F)c2)nc(Oc2c(F)c(F)c(F)c(F)c2F)n1 | – | – | – |
| 0.89 | 1.16 | CNc1nc(N[C@H](C)c2ccccc2)nc(Oc2c(F)c(F)c(F)c(F)c2F)n1 | – | – | – |
| 0.84 | 1.01 | CNc1nc(NC(C)c2cccc(F)c2)nc(Oc2c(F)c(F)c(F)c(F)c2F)n1 (stereo not drawn) | – | – | – |
| 0.55 | 0.86 | CCC(Nc1nc(NCCN(C)C)nc(Oc2c(F)c(F)c(F)c(F)c2F)n1)c1cccc(F)c1 (stereo not drawn) | – | – | – |
| 0.61 | 0.78 | C[C@@H](Nc1nc(NCCN(C)C)nc(Oc2c(F)c(F)c(F)c(F)c2F)n1)c1ccccc1 | – | – | – |
| 0.84 | 0.89 | CNc1nc(NCc2cccc(F)c2)nc(Oc2c(F)c(F)c(F)c(F)c2F)n1 | – | – | – |
| 1.39 | 1.06 | CCC(CO)Nc1nc(NCc2cccc(F)c2)nc(Oc2c(F)c(F)c(F)c(F)c2F)n1 (stereo not drawn) | – | – | – |
| 0.94 | 0.92 | Fc1cccc(CNc2nc(NCc3cccnc3)nc(Oc3c(F)c(F)c(F)c(F)c3F)n2)c1 | – | – | – |
| 1.57 | 0.96 | CN(C)CCCNc1nc(Oc2c(F)c(F)c(F)c(F)c2F)nc(N2CCCc3ccccc3C2)n1 | – | – | – |
| 1.01 | 1.02 | Fc1cccc(CNc2nc(NCc3ccccn3)nc(Oc3c(F)c(F)c(F)c(F)c3F)n2)c1 | – | – | – |
| 1.09 | 0.97 | Fc1cccc(CNc2nc(NCCNc3ccccn3)nc(Oc3c(F)c(F)c(F)c(F)c3F)n2)c1 | – | – | – |
| 0.99 | 0.98 | CN(C)CCNc1nc(Oc2c(F)c(F)c(F)c(F)c2F)nc(N(C)Cc2ccccc2)n1 | – | – | – |

| fold change (FC) [1] | fold change (FC) [2] | SMILES | Activity [3] | Activity [4] | Activity [5] |
| --- | --- | --- | --- | --- | --- |
| 1 | 0.91 | CC(=O)NCCNc1nc(NCc2cccc(F)c2)nc(Oc2c(F)c(F)c(F)c(F)c2F)n1 | – | – | – |
| 0.74 | 0.85 | CC[C@H](CO)Nc1nc(Oc2c(F)c(F)c(F)c(F)c2F)nc(N2CCCc3ccccc3C2)n1 | – | – | – |
| 1.37 | 1.51 | FC1(F)N=C(c2ccc(Cl)cc2)SC1(F)c1ccc(Cl)cc1 (stereo not drawn) | – | – | – |
| 0.98 | 0.93 | CNc1nc(Oc2c(F)c(F)c(F)c(F)c2F)nc(N2Cc3ccccc3C2)n1 | – | – | – |
| 0.43 | 0.77 | CC(Nc1nc(NCCN(C)C)nc(Oc2c(F)c(F)c(F)c(F)c2F)n1)c1cccc(F)c1 (stereo not drawn) | – | – | – |
| 1.04 | 0.99 | O=C1CCCN1CCCNc1nc(NCc2cccc(F)c2)nc(Oc2c(F)c(F)c(F)c(F)c2F)n1 | – | – | – |
| 0.86 | 0.8 | CNc1nc(Oc2c(F)c(F)c(F)c(F)c2F)nc(N2CCCc3ccccc3C2)n1 | – | – | – |
| 1.51 | 0.83 | CN(C)C1CCN(c2nc(Oc3c(F)c(F)c(F)c(F)c3F)nc(N3CCCc4ccccc4C3)n2)CC1 | Active | Active | Active |
| 0.76 | 0.77 | Fc1cccc(CNc2nc(NCc3ccncc3)nc(Oc3c(F)c(F)c(F)c(F)c3F)n2)c1 | – | – | – |
| 0.78 | 0.84 | CNc1nc(Oc2c(F)c(F)c(F)c(F)c2F)nc(N(C)Cc2cccc(F)c2)n1 | – | – | – |
| 1.1 | 0.89 | Fc1cccc(CNc2nc(NCc3ccccc3)nc(Oc3c(F)c(F)c(F)c(F)c3F)n2)c1 | – | – | – |
| 0.89 | 0.96 | CC[C@H](CO)Nc1nc(Oc2c(F)c(F)c(F)c(F)c2F)nc(N(C)[C@@H](C)c2ccccc2)n1 | – | – | – |
| 0.61 | 0.8 | CC[C@@H](CO)Nc1nc(NCc2cccc(F)c2)nc(Oc2c(F)c(F)c(F)c(F)c2F)n1 | – | – | – |
| 0.81 | 0.77 | CC[C@H](CO)Nc1nc(Oc2c(F)c(F)c(F)c(F)c2F)nc(N(C)Cc2cccc(F)c2)n1 | – | – | – |
| 1.25 | 1.09 | Fc1cccc(CNc2nc(NCCc3cc4ccccc4[nH]3)nc(Oc3c(F)c(F)c(F)c(F)c3F)n2)c1 | – | – | – |
| 1 | 0.9 | Fc1cccc(CNc2nc(NCCCCc3ccccc3)nc(Oc3c(F)c(F)c(F)c(F)c3F)n2)c1 | – | – | – |
| 0.91 | 0.92 | Nc1nc(NCc2cccc(F)c2)nc(Oc2c(F)c(F)c(F)c(F)c2F)n1 | – | – | – |
| 1.05 | 1.04 | CN(C)c1nc(NCc2cccc(F)c2)nc(Oc2c(F)c(F)c(F)c(F)c2F)n1 | – | – | – |
| 1.43 | 1.11 | CCN(Cc1ccccc1)c1nc(NCCN(C)C)nc(Oc2c(F)c(F)c(F)c(F)c2F)n1 | – | – | – |
| 0.84 | 0.89 | OCC1CCN(c2nc(NCc3cccc(F)c3)nc(Oc3c(F)c(F)c(F)c(F)c3F)n2)CC1 | – | – | – |
| 0.89 | 0.7 | CC(C)CCNc1nc(NCc2cccc(F)c2)nc(Oc2c(F)c(F)c(F)c(F)c2F)n1 | – | – | – |
| 0.87 | 0.84 | CNc1nc(Oc2c(F)c(F)c(F)c(F)c2F)nc(N2CCc3ccccc3C2)n1 | – | – | – |
| 0.65 | 0.78 | CN1CCN(c2nc(NCc3cccc(F)c3)nc(Oc3c(F)c(F)c(F)c(F)c3F)n2)CC1 | – | – | – |
| 1.53 | 1.25 | C[C@H](c1ccccc1)N(C)c1nc(NCCN(C)C)nc(Oc2c(F)c(F)c(F)c(F)c2F)n1 | – | – | – |
| 0.76 | 0.8 | COCCNc1nc(NCc2cccc(F)c2)nc(Oc2c(F)c(F)c(F)c(F)c2F)n1 | – | – | – |

From ChEMBL document CHEMBL4270538, “Targeting prohibitin with small molecules to promote melanogenesis and apoptosis in melanoma cells” (Eur J Med Chem, 2018)
